Assay results reported in PubChem BioAssay (NCI).
Values joined by “and” are separate entries in the source; they are usually repeats but may differ in a detail not shown here. Identical values can stand only once.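 These data come from cells grown in 96-well plates and exposed to compound for 48 hours at five concentrations. The concentration for 50% growth inhibition is given as GI50. TGI marks complete inhibition of growth.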

Key:
Assay in all cases: growth of human tumour cells (NCI), 48 h
A498 renal = test system: A498 renal
HL-60(TB) leukemia = test system: HL-60(TB) leukemia
HOP-62 NSCLC = test system: HOP-62 NSCLC
HOP-92 NSCLC = test system: HOP-92 NSCLC
HS 578T breast = test system: HS 578T breast
KM12 colon = test system: KM12 colon
LOX IMVI melanoma = test system: LOX IMVI melanoma
M14 melanoma = test system: M14 melanoma
MDA-MB-231 breast = test system: MDA-MB-231 breast
MOLT-4 leukemia = test system: MOLT-4 leukemia
NCI/ADR-RES ovarian = test system: NCI/ADR-RES ovarian
OVCAR-8 ovarian = test system: OVCAR-8 ovarian
RPMI-8226 leukemia = test system: RPMI-8226 leukemia
SK-MEL-28 melanoma = test system: SK-MEL-28 melanoma
SNB-19 CNS = test system: SNB-19 CNS
SNB-75 CNS = test system: SNB-75 CNS
T-47D breast = test system: T-47D breast
OVCAR-3 ovarian = test system: OVCAR-3 ovarian
PC-3 prostate = test system: PC-3 prostate

| SMILES | TGI (A498 renal) [µM] | TGI (HL-60(TB) leukemia) [µM] | TGI (HOP-62 NSCLC) [µM] | TGI (HOP-92 NSCLC) [µM] | TGI (HS 578T breast) [µM] | TGI (KM12 colon) [µM] | TGI (LOX IMVI melanoma) [µM] | TGI (M14 melanoma) [µM] | TGI (MDA-MB-231 breast) [µM] | TGI (MOLT-4 leukemia) [µM] | TGI (NCI/ADR-RES ovarian) [µM] | TGI (OVCAR-8 ovarian) [µM] | TGI (RPMI-8226 leukemia) [µM] | TGI (SK-MEL-28 melanoma) [µM] | TGI (SNB-19 CNS) [µM] | TGI (SNB-75 CNS) [µM] | TGI (T-47D breast) [µM] | TGI (OVCAR-3 ovarian) | TGI (PC-3 prostate) [µM] | GI50 (OVCAR-3 ovarian) |
| --- | --- | --- | --- | --- | --- | --- | --- | --- | --- | --- | --- | --- | --- | --- | --- | --- | --- | --- | --- | --- |
| CC/C=C/C(=O)CC(O)(C(F)(F)F)C(F)(F)F | 89.4 | > 100 | > 100 | 86.3 | > 100 | > 100 | > 100 | > 100 | > 100 | > 100 | > 100 | > 100 | > 100 | > 100 | > 100 | > 100 | > 100 | – | – | – |
| COc1ccc(/C=C2\CCCCCC2=O)cc1 | > 100 | – | > 100 | > 100 | – | > 100 | > 100 | > 100 | > 100 | > 100 | > 100 | > 100 | > 100 | > 100 | > 100 | – | > 100 | > 100 µM | > 100 | – |
| COC(=O)C1=C(\c2ccccc2)c2ccccc2C(=O)N(C2CCCCC2)/C=C\1 | > 100 | > 100 | 45.3 | 95.2 | – | 45.8 | 37.7 | > 100 | 45.1 | > 100 | > 100 | > 100 | – | 39.8 | > 100 | > 100 | – | 79.4 µM | > 100 | – |
| CCCn1c(SCC)c2cc3cc4ccccc4cc3cc2c1-c1nc(F)nc(F)n1 | – | > 100 | > 100 | > 100 | – | > 100 | > 100 | > 100 | – | > 100 | – | > 100 | > 100 | > 100 | > 100 | > 100 | – | > 100 µM | – | – |
| CC1=NN(C(=O)c2ccccc2O)C(=O)/C1=C/c1ccccc1O | 0.124 | 3.62 | 39.4 | 28.5 | – | > 100 | 31.9 | 48.4 | > 100 | 51 | > 36.7 | 64.4 | > 100 | > 100 | > 100 | > 67.7 | 15.6 | – | > 100 | – |
| N#Cc1c(Cl)/c(=C/O)c(=O)n2c1nc1ccccc12 | 72.1 | 89.6 | > 100 | 68.1 | 94.7 | > 100 | > 100 | > 100 | > 100 | 96.5 | > 100 | > 100 | > 100 | > 100 | > 100 | > 100 | – | 99.5 µM | > 100 | – |
| CCOC(=O)c1c(-c2ccc(O)c(OC)c2)c(C#N)c(=S)n(C2OC(COC(C)=O)C(OC(C)=O)C(OC(C)=O)C2OC(C)=O)c1-c1ccccc1 (stereo not drawn) | > 100 | > 100 | > 100 | > 100 | > 100 | > 100 | > 100 | > 100 | – | > 100 | > 100 | – | > 100 | > 100 | > 100 | – | – | 48.4 µM and > 100 µM | > 100 | 21.6 µM and 56.8 µM |
| O=C(c1ccco1)N(C(=S)N1CCN(c2ccccn2)CC1)C1CCCCC1 | – | > 100 | > 100 | > 100 | – | > 100 | > 100 | > 100 | – | > 100 | – | > 100 | > 100 | > 100 | > 100 | > 100 | – | > 100 µM | – | – |
| C(=NCc1ccccc1)c1ccccc1-c1ccccc1C=NCc1ccccc1 | > 10 | 5.73 | > 10 | > 10 | – | > 10 | > 10 | > 10 | > 10 | > 10 | > 10 | > 10 | > 10 | > 10 | > 10 | > 10 | > 10 | > 10 µM | > 10 | – |
| O=c1cc(CBr)c2ccc(O)cc2o1 | > 100 | > 100 | 50.3 | – | > 100 | > 100 | > 100 | > 100 | > 100 | > 100 | > 100 | > 100 | > 100 | > 100 | > 100 | > 100 | – | > 100 µM | > 100 | – |
| COc1cc(NCc2ccc3nc(OC)c(OC)nc3c2)cc(OC)c1OC | > 100 | > 100 | > 100 | > 100 | – | > 100 | > 100 | > 100 | > 100 | > 100 | > 100 | > 100 | – | > 100 | > 100 | > 100 | > 100 | > 100 µM | > 100 | – |
| COC(=O)C1[C@@H](C(=O)OC)C12C=Cc1ccccc1C=C2 (stereo partly drawn) | > 100 | > 100 | > 100 | > 100 | – | > 100 | > 100 | > 100 | – | > 100 | – | > 100 | > 100 | > 100 | > 100 | – | – | > 100 µM | – | – |
| CCOC(=O)[C@@H]1ON2O[C@H](OC3CCCC3(c3ccccc3)c3ccccc3)C[C@H]3OC(=O)[C@@H]1C32 (stereo partly drawn) | 95.9 | 59.1 | > 100 | > 100 | > 100 | 85.4 | 86.7 | > 100 | > 100 | > 100 | > 100 | > 100 | > 100 | – | – | > 100 | 80 | > 100 µM | – | – |
| Cn1c(Nc2ccccc2)c(C=Nc2ccccc2)c(=O)n(C)c1=O | > 100 | > 100 | 79.7 | > 100 | – | > 100 | > 100 | > 100 | > 100 | > 100 | > 100 | > 100 | > 100 | > 100 | – | – | – | > 100 µM | > 100 | – |
| CN(C(=O)Cc1ccc(Cl)c(Cl)c1)[C@@H]1CCCC[C@H]1[N+]1(C)CC=CC1 | > 100 | > 100 | > 100 | > 100 | – | > 100 | > 100 | > 100 | > 100 | > 100 | > 100 | > 100 | > 100 | > 100 | > 100 | – | > 100 | > 100 µM | > 100 | – |
| CSC1=N/C(=C\c2ccco2)C(=O)N1CN1CCCCC1 | > 100 | – | > 100 | 87.2 | > 100 | > 100 | > 100 | > 100 | > 100 | > 100 | > 100 | > 100 | > 100 | > 100 | > 100 | > 100 | – | > 100 µM | > 100 | – |
| COc1cc(C=Nc2ccc(C(C)C)cc2)cc(OC)c1OC | > 100 | > 82.3 | > 100 | > 100 | – | > 100 | > 100 | > 100 | – | > 100 | – | > 100 | > 68.4 | > 100 | > 100 | > 100 | – | > 100 µM | – | – |
| [N-]=[NH+]CC(=O)OC(COCc1ccccc1)COCc1ccccc1 | > 100 | > 100 | > 100 | > 100 | – | 86.2 | > 100 | – | > 100 | > 100 | – | – | > 100 | > 100 | > 100 | – | – | > 100 µM | > 100 | – |
| O=C(C[n+]1ccccc1)N=N/C(C(=O)Nc1c(Cl)c(O)c2ccccc2c1O)=C1/C(=O)Oc2cc(O)ccc2C1=O | 57.5 | > 100 | 22.4 | 48.8 | – | > 100 | > 100 | 14.7 | 61.4 | > 100 | 85.1 | 35.3 | 54.6 | – | – | 39.4 | 32.1 | 13.2 µM | 33 | – |
| C#C[C@]1(O)CCC2C3CCc4cc(Oc5nc(F)nc(-c6c7cc8ccccc8cc7c7n6CCS7)n5)ccc4C3CCC21C (stereo partly drawn) | – | > 100 | > 100 | > 100 | – | > 100 | > 100 | 96 | – | > 100 | – | > 100 | > 100 | > 100 | > 100 | > 100 | – | > 100 µM | – | – |
| COc1ccc2cc(/C=N\NC(=O)Nc3cccc4ccccc34)ccc2c1 | 31.3 | – | 28.7 | – | 94.6 | > 100 | > 100 | > 100 | 65.7 | > 100 | > 100 | > 100 | – | > 100 | 53.5 | 47.2 | – | – | > 100 | – |
| CCCN1CN(C(C(=O)N[C@@H]2C(=O)N3C(C(=O)O)=C(C)CSC23)c2ccc(O)cc2)CSC1=S (stereo partly drawn) | > 100 | > 100 | > 100 | > 100 | – | > 100 | > 100 | > 100 | – | > 100 | – | > 100 | > 100 | > 100 | > 100 | > 100 | – | > 100 µM | – | – |
| O=C(c1cccs1)N(C(=S)N1CCN(c2ccccn2)CC1)C1CCCCC1 | – | > 100 | > 100 | > 100 | – | > 100 | > 100 | > 100 | – | > 100 | – | > 100 | > 100 | > 100 | > 100 | > 100 | – | > 100 µM | – | – |
